Assay results as given in PubChem BioAssay (NCI).
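Cultured in 96-well plates, cells were exposed to test compound for 48 hours across five concentrations. Definition used: TGI = concentration required for complete inhibition of growth.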

Key:
Assay in all cases: NCI-60 cell line screen, 48 h
[1] = test system: 786-0 renal
[2] = test system: A498 renal
[3] = test system: A549 NSCLC
[4] = test system: ACHN renal
[5] = test system: BT-549 breast
[6] = test system: CAKI-1 renal
[7] = test system: CCRF-CEM leukemia
[8] = test system: COLO 205 colon
[9] = test system: DU-145 prostate
[10] = test system: EKVX NSCLC
[11] = test system: HCC-2998 colon
[12] = test system: HCT-116 colon
[13] = test system: HCT-15 colon
[14] = test system: HL-60(TB) leukemia
[15] = test system: HOP-62 NSCLC
[16] = test system: HOP-92 NSCLC
[17] = test system: HT29 colon
[18] = test system: K-562 leukemia
[19] = test system: KM12 colon
[20] = test system: LOX IMVI melanoma
[21] = test system: M14 melanoma
[22] = test system: MALME-3M melanoma
[23] = test system: MCF7 breast
[24] = test system: MDA-MB-231 breast
[25] = test system: MDA-MB-435
[26] = test system: MDA-N
[27] = test system: MOLT-4 leukemia
[28] = test system: NCI-H226 lung
[29] = test system: NCI-H23 lung
[30] = test system: NCI-H460 lung
[31] = test system: NCI-H522 lung
[32] = test system: NCI/ADR-RES ovarian
[33] = test system: OVCAR-3 ovarian
[34] = test system: OVCAR-4 ovarian
[35] = test system: OVCAR-5 ovarian
[36] = test system: OVCAR-8 ovarian
[37] = test system: PC-3 prostate
[38] = test system: RPMI-8226 leukemia
[39] = test system: RXF 393 renal
[40] = test system: SF-295 CNS
[41] = test system: SF-539 CNS
[42] = test system: SK-MEL-2 melanoma
[43] = test system: SK-MEL-28 melanoma
[44] = test system: SK-MEL-5 melanoma
[45] = test system: SK-OV-3 ovarian
[46] = test system: SN12C renal
[47] = test system: SNB-19 CNS
[48] = test system: SNB-75 CNS
[49] = test system: SR leukemia
[50] = test system: SW-620 colon
[51] = test system: U251 CNS
[52] = test system: UACC-257 melanoma
[53] = test system: UACC-62 melanoma
[54] = test system: UO-31 renal
[55] = test system: IGROV1 ovarian
[56] = test system: SF-268 CNS
[57] = test system: TK-10 renal

Measured: TGI

CC(CO)CCC(O)C(C)(O)C1CCC2(O)C3=CC(=O)C4CC(O)C(O)CC4(C)C3CCC12C (centres undefined)
not listed: [55] | [56] | [57]
> 100 µM: all other assays above

CC1(C)OCC(C2OC(OC(=O)c3ccc(C(F)(F)F)cc3)C3OC(C)(C)OC23)O1 (centres undefined)
not listed: [14] | [16]
> 77.5 µM: all other assays above
